From ChEMBL document CHEMBL3044675, “Synthesis and Antifungal Activities of Some Novel Pyrimidine Derivatives” (2011)

Experiments:
Assay type in all cases: functional
Bipolaris maydis = assay: Antifungal activity against Cochliobolus heterostrophus at 50 ug/ml by poisoned food technique
Alternaria kikuchiana = assay: Antifungal activity against Alternaria kikuchiana at 50 ug/ml by poisoned food technique
Fusarium graminearum = assay: Antifungal activity against Fusarium graminearum at 50 ug/ml by poisoned food technique
Ceratobasidium cereale = assay: Antifungal activity against Ceratobasidium cereale at 50 ug/ml by poisoned food technique
Thanatephorus cucumeris = assay: Antifungal activity against Thanatephorus cucumeris at 50 ug/ml by poisoned food technique
Fusarium fujikuroi = assay: Antifungal activity against Fusarium fujikuroi at 50 ug/ml by poisoned food technique
Macrophoma = assay: Antifungal activity against Macrophoma kuwatsukai at 50 ug/ml by poisoned food technique
Mycosphaerella arachidis = assay: Antifungal activity against Mycosphaerella arachidis at 50 ug/ml by poisoned food technique
Sclerotinia sclerotiorum = assay: Antifungal activity against Sclerotinia sclerotiorum at 50 ug/ml by poisoned food technique
Alternaria solani = assay: Antifungal activity against Alternaria solani at 50 ug/ml by poisoned food technique
Alternaria mali = assay: Antifungal activity against Alternaria mali at 50 ug/ml by poisoned food technique
Botrytis cinerea = assay: Antifungal activity against Botryotinia fuckeliana at 50 ug/ml by poisoned food technique
Rhizoctonia solani = assay: Antifungal activity against Rhizoctonia solani at 50 ug/ml by poisoned food technique
Phytophthora infestans = assay: Antifungal activity against Phytophthora infestans at 50 ug/ml by poisoned food technique

Compound: Cc1cc(OC(=O)N2CCOCC2)nc(C(C)C)n1
- Activity (Bipolaris maydis): 17.4%
- Activity (Alternaria kikuchiana): 40.9%
- Activity (Fusarium graminearum): 7.4%
- Activity (Ceratobasidium cereale): 20%
- Activity (Thanatephorus cucumeris): 19.6%
- Activity (Fusarium fujikuroi): 6.7%
- Activity (Macrophoma): 31.3%
- Activity (Mycosphaerella arachidis): 6.7%
- Activity (Sclerotinia sclerotiorum): 0%
- Activity (Alternaria solani): 0%
- Activity (Alternaria mali): 0%
- Activity (Botrytis cinerea): 18.5%
- Activity (Rhizoctonia solani): 61.9%
- Activity (Phytophthora infestans): 0%

Compound: Cc1cc(OCc2ccc(Cl)nc2)nc(C(C)C)n1
- Activity (Bipolaris maydis): 34.8%
- Activity (Alternaria kikuchiana): 45.5%
- Activity (Fusarium graminearum): 25.9%
- Activity (Ceratobasidium cereale): 35%
- Activity (Thanatephorus cucumeris): 80.4%
- Activity (Fusarium fujikuroi): 20%
- Activity (Macrophoma): 31.3%
- Activity (Mycosphaerella arachidis): 13.3%
- Activity (Sclerotinia sclerotiorum): 0%
- Activity (Alternaria solani): 41.2%
- Activity (Alternaria mali): 21.4%
- Activity (Botrytis cinerea): 29.6%
- Activity (Rhizoctonia solani): 63.5%
- Activity (Phytophthora infestans): 22.7%

Compound: COC(=O)Nc1nc2ccccc2[nH]1 [CARBENDAZIM]
- Activity (Bipolaris maydis): 69.6%
- Activity (Alternaria kikuchiana): 81.8%
- Activity (Fusarium graminearum): 59.3%
- Activity (Ceratobasidium cereale): 100%
- Activity (Thanatephorus cucumeris): 98%
- Activity (Fusarium fujikuroi): 60%
- Activity (Macrophoma): 43.8%
- Activity (Mycosphaerella arachidis): 53.3%
- Activity (Sclerotinia sclerotiorum): 73.3%
- Activity (Alternaria solani): 76.5%
- Activity (Alternaria mali): 78.6%
- Activity (Botrytis cinerea): 63%
- Activity (Rhizoctonia solani): 100%
- Activity (Phytophthora infestans): 27.3%

Compound: Cc1cc(Nc2ccccc2)nc(C(C)C)n1
- Activity (Bipolaris maydis): 26.1%
- Activity (Alternaria kikuchiana): 27.3%
- Activity (Fusarium graminearum): 7.4%
- Activity (Ceratobasidium cereale): 5%
- Activity (Thanatephorus cucumeris): 39.2%
- Activity (Fusarium fujikuroi): 0%
- Activity (Macrophoma): 21.9%
- Activity (Mycosphaerella arachidis): 33.3%
- Activity (Sclerotinia sclerotiorum): 0%
- Activity (Alternaria solani): 11.8%
- Activity (Alternaria mali): 21.4%
- Activity (Botrytis cinerea): 7.4%
- Activity (Rhizoctonia solani): 57.1%
- Activity (Phytophthora infestans): 0%

Compound: Cc1cc(O)no1 [HYMEXAZOL]
- Activity (Bipolaris maydis): 34.8%
- Activity (Alternaria kikuchiana): 81.8%
- Activity (Fusarium graminearum): 33.3%
- Activity (Ceratobasidium cereale): 25%
- Activity (Thanatephorus cucumeris): 78.4%
- Activity (Fusarium fujikuroi): 40%
- Activity (Macrophoma): 50%
- Activity (Mycosphaerella arachidis): 93.3%
- Activity (Sclerotinia sclerotiorum): 66.7%
- Activity (Alternaria solani): 88.2%
- Activity (Alternaria mali): 85.7%
- Activity (Botrytis cinerea): 70.4%
- Activity (Rhizoctonia solani): 63.5%
- Activity (Phytophthora infestans): 36.4%

Compound: COc1ccc(/C(=C\C(=O)N2CCOCC2)c2ccc(F)cc2)cc1OC [FLUMORPH]
- Activity (Bipolaris maydis): 17.4%
- Activity (Alternaria kikuchiana): 18.2%
- Activity (Fusarium graminearum): 7.4%
- Activity (Ceratobasidium cereale): 20%
- Activity (Thanatephorus cucumeris): 9.8%
- Activity (Fusarium fujikuroi): 13.3%
- Activity (Macrophoma): 21.9%
- Activity (Mycosphaerella arachidis): 0%
- Activity (Sclerotinia sclerotiorum): 0%
- Activity (Alternaria solani): 0%
- Activity (Alternaria mali): 21.4%
- Activity (Botrytis cinerea): 7.4%
- Activity (Rhizoctonia solani): 61.9%
- Activity (Phytophthora infestans): 4.5%

Compound: COc1cc(OC)nc(NCc2ccc(Cl)nc2)n1
- Activity (Bipolaris maydis): 17.4%
- Activity (Alternaria kikuchiana): 18.2%
- Activity (Fusarium graminearum): 0%
- Activity (Ceratobasidium cereale): 5%
- Activity (Thanatephorus cucumeris): 2%
- Activity (Fusarium fujikuroi): 20%
- Activity (Macrophoma): 46.9%
- Activity (Mycosphaerella arachidis): 0%
- Activity (Sclerotinia sclerotiorum): 20%
- Activity (Alternaria solani): 0%
- Activity (Alternaria mali): 0%
- Activity (Botrytis cinerea): 40.7%
- Activity (Rhizoctonia solani): 54%
- Activity (Phytophthora infestans): 9.1%

Compound: Cc1cc(Nc2ccc(OC(F)(F)F)cc2)nc(C(C)C)n1
- Activity (Bipolaris maydis): 39.1%
- Activity (Alternaria kikuchiana): 63.6%
- Activity (Fusarium graminearum): 44.4%
- Activity (Ceratobasidium cereale): 25%
- Activity (Thanatephorus cucumeris): 76.5%
- Activity (Fusarium fujikuroi): 40%
- Activity (Macrophoma): 25%
- Activity (Mycosphaerella arachidis): 46.7%
- Activity (Sclerotinia sclerotiorum): 0%
- Activity (Alternaria solani): 35.3%
- Activity (Alternaria mali): 50%
- Activity (Botrytis cinerea): 25.9%
- Activity (Rhizoctonia solani): 66.7%
- Activity (Phytophthora infestans): 36.4%

Compound: COc1cc(C(=O)Oc2cc(C)nc(C(C)C)n2)cc(OC)c1OC
- Activity (Bipolaris maydis): 26.1%
- Activity (Alternaria kikuchiana): 31.8%
- Activity (Ceratobasidium cereale): 15%
- Activity (Thanatephorus cucumeris): 9.8%
- Activity (Fusarium fujikuroi): 20%
- Activity (Macrophoma): 40.6%
- Activity (Mycosphaerella arachidis): 6.7%
- Activity (Sclerotinia sclerotiorum): 66.7%
- Activity (Alternaria solani): 0%
- Activity (Alternaria mali): 28.6%
- Activity (Botrytis cinerea): 14.8%
- Activity (Rhizoctonia solani): 63.5%

Compound: Cc1cc(NC2CCCCC2)nc(C(C)C)n1
- Activity (Bipolaris maydis): 13%
- Activity (Alternaria kikuchiana): 27.3%
- Activity (Fusarium graminearum): 22.2%
- Activity (Ceratobasidium cereale): 0%
- Activity (Thanatephorus cucumeris): 52.9%
- Activity (Fusarium fujikuroi): 13.3%
- Activity (Macrophoma): 0%
- Activity (Mycosphaerella arachidis): 46.7%
- Activity (Sclerotinia sclerotiorum): 33.3%
- Activity (Alternaria solani): 0%
- Activity (Alternaria mali): 21.4%
- Activity (Botrytis cinerea): 3.7%
- Activity (Rhizoctonia solani): 55.6%
- Activity (Phytophthora infestans): 36.4%

Compound: Cc1cc(C)nc(Nc2ccccc2)n1 [PYRIMETHANIL]
- Activity (Bipolaris maydis): 91.3%
- Activity (Alternaria kikuchiana): 100%
- Activity (Fusarium graminearum): 44.4%
- Activity (Ceratobasidium cereale): 40%
- Activity (Thanatephorus cucumeris): 98%
- Activity (Fusarium fujikuroi): 20%
- Activity (Macrophoma): 100%
- Activity (Mycosphaerella arachidis): 100%
- Activity (Sclerotinia sclerotiorum): 86.7%
- Activity (Alternaria solani): 100%
- Activity (Alternaria mali): 21.4%
- Activity (Botrytis cinerea): 96.3%
- Activity (Rhizoctonia solani): 77.8%
- Activity (Phytophthora infestans): 22.7%

Compound: COc1ccc(C(=CC(=O)N2CCOCC2)c2ccc(Cl)cc2)cc1OC [DIMETHOMORPH]
- Activity (Bipolaris maydis): 17.4%
- Activity (Alternaria kikuchiana): 22.7%
- Activity (Fusarium graminearum): 0%
- Activity (Ceratobasidium cereale): 40%
- Activity (Thanatephorus cucumeris): 23.5%
- Activity (Fusarium fujikuroi): 20%
- Activity (Macrophoma): 6.3%
- Activity (Mycosphaerella arachidis): 0%
- Activity (Sclerotinia sclerotiorum): 20%
- Activity (Alternaria solani): 5.9%
- Activity (Alternaria mali): 7.1%
- Activity (Botrytis cinerea): 18.5%
- Activity (Rhizoctonia solani): 68.3%
- Activity (Phytophthora infestans): 9.1%

Compound: Cc1cc(OC(=O)c2ccc(F)cc2)nc(C(C)C)n1
- Activity (Bipolaris maydis): 13%
- Activity (Alternaria kikuchiana): 27.3%
- Activity (Ceratobasidium cereale): 0%
- Activity (Thanatephorus cucumeris): 15.7%
- Activity (Fusarium fujikuroi): 46.7%
- Activity (Macrophoma): 46.9%
- Activity (Mycosphaerella arachidis): 0%
- Activity (Sclerotinia sclerotiorum): 40%
- Activity (Alternaria solani): 0%
- Activity (Alternaria mali): 21.4%
- Activity (Botrytis cinerea): 14.8%
- Activity (Rhizoctonia solani): 55.6%
- Activity (Phytophthora infestans): 18.2%

Compound: COc1cc(OC)nc(NCc2cnc(Cl)s2)n1
- Activity (Bipolaris maydis): 17.4%
- Activity (Alternaria kikuchiana): 31.8%
- Activity (Fusarium graminearum): 29.6%
- Activity (Ceratobasidium cereale): 5%
- Activity (Thanatephorus cucumeris): 2%
- Activity (Fusarium fujikuroi): 26.7%
- Activity (Macrophoma): 46.9%
- Activity (Mycosphaerella arachidis): 13.3%
- Activity (Sclerotinia sclerotiorum): 0%
- Activity (Alternaria solani): 5.9%
- Activity (Alternaria mali): 21.4%
- Activity (Botrytis cinerea): 37%
- Activity (Rhizoctonia solani): 60.3%
- Activity (Phytophthora infestans): 0%

Compound: Cc1cc(OC(=O)c2ccc(Cl)cc2)nc(C(C)C)n1
- Activity (Bipolaris maydis): 26.1%
- Activity (Alternaria kikuchiana): 22.7%
- Activity (Fusarium graminearum): 40.7%
- Activity (Ceratobasidium cereale): 0%
- Activity (Thanatephorus cucumeris): 0%
- Activity (Fusarium fujikuroi): 53.3%
- Activity (Macrophoma): 37.5%
- Activity (Mycosphaerella arachidis): 6.7%
- Activity (Sclerotinia sclerotiorum): 60%
- Activity (Alternaria solani): 0%
- Activity (Alternaria mali): 21.4%
- Activity (Botrytis cinerea): 33.3%
- Activity (Rhizoctonia solani): 61.9%
- Activity (Phytophthora infestans): 13.6%

Compound: Cc1cc(OCc2cnc(Cl)s2)nc(C(C)C)n1
- Activity (Bipolaris maydis): 17.4%
- Activity (Alternaria kikuchiana): 18.2%
- Activity (Fusarium graminearum): 14.8%
- Activity (Ceratobasidium cereale): 30%
- Activity (Thanatephorus cucumeris): 3.9%
- Activity (Fusarium fujikuroi): 20%
- Activity (Macrophoma): 31.3%
- Activity (Mycosphaerella arachidis): 0%
- Activity (Sclerotinia sclerotiorum): 0%
- Activity (Alternaria solani): 0%
- Activity (Alternaria mali): 0%
- Activity (Botrytis cinerea): 7.4%
- Activity (Rhizoctonia solani): 61.9%
- Activity (Phytophthora infestans): 0%
